Test results as given in ChEMBL document CHEMBL1201862, “PubChem BioAssay data set” (2004).
Active and inactive are the calls of the source. Unless noted, the rule behind the calls is not given here.

What was measured:
[1] = A Cell-Based Confirmatory Screen for Compounds that Inhibit VEEV, TC-83 (7).; type: functional
[2] = inhibitors of non-replicating M. tuberculosis, dose response, luciferase, dry powder (AID 651620); type: functional; settings: Mycobacterium tuberculosis
[3] = inhibitors of non-replicating M. tuberculosis, dose response, luciferase, dry powder (AID 651619); type: functional; settings: Mycobacterium tuberculosis
[4] = IRAP inhibitors, dose response, selectivity assay for ERAP1 modulator project, biochemical, Leu-AMC fluorescence, cherry-picked samples, set 2 (AID 743340)
[5] = target: E3 ubiquitin-protein ligase UHRF1 (Homo sapiens, UniProt Q96T88); assay: Counterscreen for inhibitors of 5-meCpG-binding domain protein 2 (MBD2): TRFRET-based biochemical high throughput dose response assay to identify inhibitors of binding of ubiquitin-like with PHD and ring finger domains 1 (UHRF1) to methylated oligonucleotide.
[6] = reduction of endogenous Shn3 mRNA, dose response, qPCR, Clone20 cells, cherry-pick (AID 743415); type: functional, cell-based
[7] = reduction of Shn3 3'UTR firefly luciferase signal, dose response, Schnurri-3 inhibitor project, cell-based, Clone20 osteoblasts, cherry-pick, set 2 (AID 720490); type: functional;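 also: actives lower the luminescence signal as inhibitors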
[8] = cytotoxicity toward NIH3T3 fibroblasts, dose response, counter-screen, cell-based, ATP luminescence, mouse fibroblasts (AID 2010); type: functional;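 also: cells exposed to compound for about 90 hours before reading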
CHO = assay: cytotoxicity in TLR9-MyD88 CHO cells, dose response, cytotoxicity control for TLR9-MyD88 binding inhibitor project, cell-based, luminescence (AID 588339); type: functional, hamster; settings: Cricetulus griseus;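 also: CHO cells stably coexpressing TLR9 and MyD88 fusions from primary screen; compound exposure lasted 48 hours before viability readout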
[9] = target: Bifunctional protein GlmU (Mycobacterium tuberculosis, UniProt P9WMN3); assay: Inhibitors of Mycobacterial Glucosamine-1-phosphate acetyl transferase (GlmU). Secondary screen.; parameters: species or system Mycobacterium tuberculosis H37Rv
Beta Lactamase = Beta Lactamase (Pseudomonas aeruginosa, UniProt Q932Y6); assay: beta-lactamase reporter inhibitor potency, dose response, artefact control for TLR9-MyD88 binding inhibitor project, BLA reporter cells, FRET fluorescence (AID 588341); type: cell-based;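 also: cell based assay in CHO-K1 cells stably expressing beta-lactamase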
[10] = Shn3 3'UTR reporter inhibitors, dose response, cell-based, Clone20 osteoblasts, firefly luciferase, cherry-picked (AID 624132); type: functional;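 also: firefly luciferase luminescence from reporter carrying the Shn3 3'UTR in osteoblasts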
[11] = HepG2 cell cytotoxicity, dose response, cytotoxicity control for Shn3 inhibitor project, CellTiter-Glo, cherry-picked (AID 624134); type: functional, cell-based
[12] = inhibitors of intracellular T. cruzi replication, confirmation, NIH3T3 host cells, beta-gal luminescence (AID 2044); type: functional, cell-based;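 also: intracellular parasites grown in NIH/3T3 mouse fibroblasts as host cells; luminescent beta-galactosidase reporter signal from transgenic T. cruzi replicating inside host cells; inhibitors lower the luminescence signal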
[13] = control 3'UTR Renilla luciferase suppression, dose response, counter-screen for Shn3 inhibitor project, cell-based, Clone20-Shn3RL, cherry-picked (AID 624133); type: functional
[14] = inhibitors of control Renilla luciferase reporter, dose response, counter-screen for Shn3 3'UTR targeting project, Clone20-Shn3RL cells, dual-Glo, cherry-pick, set 2 (AID 720724); type: functional, cell-based; settings: Dual-Go Shn3RL
Large T antigen = Large T antigen (Simian virus 40, UniProt P03070); type: functional, Betapolyomavirus macacae;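 also: Confirmatory-stage PubChem screen for compounds that inhibit SV40 T antigen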
[15] = target: T1, Heat shock factor protein 1 (Mus musculus, UniProt P38532); assay: HSF1 potentiators in luciferase reporter cells, confirmation, cell-based, NIH3T3, luminescence, dose retest (AID 435004); type: functional;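 also: stress induced by proteasome inhibitor MG132 added 30 min after compound; luciferase reporter driven by HSF1 response element in NIH3T3 cells; actives raise luminescence as potentiators of the MG132 stress response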
T1 sequence (P38532 whole entry): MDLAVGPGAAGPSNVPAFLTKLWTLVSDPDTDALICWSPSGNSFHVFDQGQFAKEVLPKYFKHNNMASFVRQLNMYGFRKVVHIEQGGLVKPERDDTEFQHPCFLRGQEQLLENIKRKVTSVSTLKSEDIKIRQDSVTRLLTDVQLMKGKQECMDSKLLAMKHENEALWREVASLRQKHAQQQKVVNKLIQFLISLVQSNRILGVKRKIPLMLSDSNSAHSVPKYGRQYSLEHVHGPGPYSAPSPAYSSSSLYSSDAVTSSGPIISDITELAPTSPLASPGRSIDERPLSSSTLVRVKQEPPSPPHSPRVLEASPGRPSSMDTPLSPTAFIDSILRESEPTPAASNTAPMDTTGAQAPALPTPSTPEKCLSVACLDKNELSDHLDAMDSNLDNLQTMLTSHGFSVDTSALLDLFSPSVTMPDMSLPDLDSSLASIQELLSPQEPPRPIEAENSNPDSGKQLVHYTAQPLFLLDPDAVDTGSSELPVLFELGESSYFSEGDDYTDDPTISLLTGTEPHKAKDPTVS

[16] = Artemis endonuclease inhibitor potency, dose response, biochemical, fluorescence intensity (AID 720701); type: functional;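 also: Artemis endonuclease enzyme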
[17] = target: Delta-type opioid receptor (Homo sapiens, UniProt P41143); assay: Late-stage results from the probe development effort to identify antagonists of OPRK1: fluorescence-based cell-based dose response OPRD1 counterscreen.; type: functional
Mu-type opioid receptor = Mu-type opioid receptor (Homo sapiens, UniProt P35372); assay: Late-stage results from the probe development effort to identify antagonists of OPRK1: luminescence-based cell-based dose response OPRM1 counterscreen.; type: functional
[18] = LOX IMVI melanoma cell viability loss, dose response, HRAS target identification, CellTiter-Glo ATP luminescence, 8/24/48 h, dry powder (AID 720602); type: functional, cell-based
[19] = SNB-75 astrocytoma cell viability loss, late-stage follow-up, mechanism study for HRAS target identification, CellTiter-Glo ATP luminescence, several timepoints, dry powder (AID 720624); type: functional, cell-based
[20] = C2C12 myoblast ATP-based viability loss, dose response, cytotoxicity control for HRAS target identification, cell-based, CellTiter-Glo ATP luminescence, 8/24/48 h, dry powder (AID 720603); type: functional
[21] = U-251 glioblastoma cell viability loss, dose response, HRAS target identification, Alamar Blue fluorescence, 8/24/48 h, dry powder (AID 720605); type: functional, cell-based
[22] = SR lymphoma cell viability over time, late-stage follow-up, mechanism study for HRAS target identification, CellTiter-Glo ATP luminescence, 8-48 h, dry powder (AID 720608); type: functional, cell-based
[23] = CCRF-CEM leukemia cell viability loss, dose response, HRAS target identification, CellTiter-Glo ATP luminescence, 8/24/48 h, dry powder (AID 720607); type: functional, cell-based
[24] = HT-29 colorectal cell cytotoxicity over time, dose response, HRas target identification project, CellTiter-Glo, multiple timepoints, dry powder (AID 720598); type: functional, cell-based
[25] = target: Metabotropic glutamate receptor 5 (Rattus norvegicus, UniProt P31424); assay: Identification of a glycine sulfonamide based non-MPEP site positive allosteric potentiator (PAM) of mGlu5 (calcium_assay).; type: functional
Sequence of Metabotropic glutamate receptor 5 (P31424 whole entry): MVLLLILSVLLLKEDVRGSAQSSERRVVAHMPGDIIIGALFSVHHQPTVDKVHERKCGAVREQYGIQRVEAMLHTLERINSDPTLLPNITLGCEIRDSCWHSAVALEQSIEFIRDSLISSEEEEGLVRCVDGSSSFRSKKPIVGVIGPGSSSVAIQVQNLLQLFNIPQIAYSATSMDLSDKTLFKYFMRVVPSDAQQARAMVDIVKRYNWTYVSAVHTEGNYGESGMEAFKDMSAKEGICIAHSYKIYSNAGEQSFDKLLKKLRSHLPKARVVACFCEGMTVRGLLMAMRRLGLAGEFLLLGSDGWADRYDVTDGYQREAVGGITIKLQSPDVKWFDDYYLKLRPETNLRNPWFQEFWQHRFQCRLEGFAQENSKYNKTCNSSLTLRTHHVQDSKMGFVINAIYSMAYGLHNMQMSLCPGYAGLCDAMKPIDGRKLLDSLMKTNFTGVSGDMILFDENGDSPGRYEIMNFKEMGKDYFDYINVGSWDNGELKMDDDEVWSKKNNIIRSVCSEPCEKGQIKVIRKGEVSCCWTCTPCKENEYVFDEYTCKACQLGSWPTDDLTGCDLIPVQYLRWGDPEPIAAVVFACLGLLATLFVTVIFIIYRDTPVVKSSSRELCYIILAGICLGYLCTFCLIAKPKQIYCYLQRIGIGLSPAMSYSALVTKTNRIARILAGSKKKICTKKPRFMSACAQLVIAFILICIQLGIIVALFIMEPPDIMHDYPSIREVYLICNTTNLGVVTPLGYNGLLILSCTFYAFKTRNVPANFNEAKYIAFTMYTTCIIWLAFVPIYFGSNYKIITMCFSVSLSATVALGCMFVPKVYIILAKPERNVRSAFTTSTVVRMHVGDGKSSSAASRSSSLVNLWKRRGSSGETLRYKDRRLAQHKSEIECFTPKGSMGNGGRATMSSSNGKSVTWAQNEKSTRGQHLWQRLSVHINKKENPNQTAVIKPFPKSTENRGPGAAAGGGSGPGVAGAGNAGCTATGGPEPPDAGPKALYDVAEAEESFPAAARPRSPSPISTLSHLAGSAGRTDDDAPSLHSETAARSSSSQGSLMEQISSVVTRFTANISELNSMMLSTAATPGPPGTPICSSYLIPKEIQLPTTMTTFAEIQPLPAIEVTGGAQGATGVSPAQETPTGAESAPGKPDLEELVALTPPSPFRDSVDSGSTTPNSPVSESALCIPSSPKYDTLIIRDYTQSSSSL

Sequence of Mu-type opioid receptor (P35372 whole entry): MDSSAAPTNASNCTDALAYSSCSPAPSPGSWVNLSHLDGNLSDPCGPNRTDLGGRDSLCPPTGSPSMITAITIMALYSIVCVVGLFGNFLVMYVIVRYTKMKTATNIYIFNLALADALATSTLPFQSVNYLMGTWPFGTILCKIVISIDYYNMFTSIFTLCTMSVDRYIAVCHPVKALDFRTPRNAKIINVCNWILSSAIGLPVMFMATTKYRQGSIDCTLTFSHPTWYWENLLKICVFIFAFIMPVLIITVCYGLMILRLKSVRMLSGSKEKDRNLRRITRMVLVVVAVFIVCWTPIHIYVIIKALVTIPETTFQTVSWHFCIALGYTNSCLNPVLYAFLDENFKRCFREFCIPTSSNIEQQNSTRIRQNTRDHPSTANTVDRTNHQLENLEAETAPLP
Sequence of Beta Lactamase (Q932Y6 whole entry): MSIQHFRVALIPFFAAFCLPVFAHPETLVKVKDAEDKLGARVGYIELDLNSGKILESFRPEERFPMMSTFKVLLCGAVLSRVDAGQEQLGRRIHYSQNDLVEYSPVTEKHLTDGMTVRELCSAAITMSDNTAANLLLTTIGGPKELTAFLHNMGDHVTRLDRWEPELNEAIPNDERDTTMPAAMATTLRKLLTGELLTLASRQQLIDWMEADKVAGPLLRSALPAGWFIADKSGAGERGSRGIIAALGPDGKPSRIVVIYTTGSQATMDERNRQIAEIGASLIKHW
Sequence of E3 ubiquitin-protein ligase UHRF1 (Q96T88 whole entry, the tested form may be a part): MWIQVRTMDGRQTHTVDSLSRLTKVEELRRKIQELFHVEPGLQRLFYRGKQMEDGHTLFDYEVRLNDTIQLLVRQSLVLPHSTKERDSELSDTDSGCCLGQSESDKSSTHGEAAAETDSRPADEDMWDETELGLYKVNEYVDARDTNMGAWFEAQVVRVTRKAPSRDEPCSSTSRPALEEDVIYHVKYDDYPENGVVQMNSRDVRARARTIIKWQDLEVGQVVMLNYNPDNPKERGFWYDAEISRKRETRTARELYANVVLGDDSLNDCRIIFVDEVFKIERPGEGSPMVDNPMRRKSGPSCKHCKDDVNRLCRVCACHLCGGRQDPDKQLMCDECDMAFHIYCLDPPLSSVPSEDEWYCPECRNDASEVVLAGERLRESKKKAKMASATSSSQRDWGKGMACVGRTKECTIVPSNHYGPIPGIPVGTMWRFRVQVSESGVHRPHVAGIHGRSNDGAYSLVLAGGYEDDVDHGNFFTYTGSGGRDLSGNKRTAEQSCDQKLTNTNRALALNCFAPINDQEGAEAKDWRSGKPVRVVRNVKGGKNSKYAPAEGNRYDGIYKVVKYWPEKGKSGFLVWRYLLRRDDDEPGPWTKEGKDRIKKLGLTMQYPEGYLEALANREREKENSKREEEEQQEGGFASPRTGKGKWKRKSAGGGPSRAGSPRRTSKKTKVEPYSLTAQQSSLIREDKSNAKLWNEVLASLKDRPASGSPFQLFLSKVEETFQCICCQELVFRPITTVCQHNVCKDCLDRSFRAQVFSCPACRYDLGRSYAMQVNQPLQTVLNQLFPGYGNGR
Sequence of Large T antigen (P03070 whole entry): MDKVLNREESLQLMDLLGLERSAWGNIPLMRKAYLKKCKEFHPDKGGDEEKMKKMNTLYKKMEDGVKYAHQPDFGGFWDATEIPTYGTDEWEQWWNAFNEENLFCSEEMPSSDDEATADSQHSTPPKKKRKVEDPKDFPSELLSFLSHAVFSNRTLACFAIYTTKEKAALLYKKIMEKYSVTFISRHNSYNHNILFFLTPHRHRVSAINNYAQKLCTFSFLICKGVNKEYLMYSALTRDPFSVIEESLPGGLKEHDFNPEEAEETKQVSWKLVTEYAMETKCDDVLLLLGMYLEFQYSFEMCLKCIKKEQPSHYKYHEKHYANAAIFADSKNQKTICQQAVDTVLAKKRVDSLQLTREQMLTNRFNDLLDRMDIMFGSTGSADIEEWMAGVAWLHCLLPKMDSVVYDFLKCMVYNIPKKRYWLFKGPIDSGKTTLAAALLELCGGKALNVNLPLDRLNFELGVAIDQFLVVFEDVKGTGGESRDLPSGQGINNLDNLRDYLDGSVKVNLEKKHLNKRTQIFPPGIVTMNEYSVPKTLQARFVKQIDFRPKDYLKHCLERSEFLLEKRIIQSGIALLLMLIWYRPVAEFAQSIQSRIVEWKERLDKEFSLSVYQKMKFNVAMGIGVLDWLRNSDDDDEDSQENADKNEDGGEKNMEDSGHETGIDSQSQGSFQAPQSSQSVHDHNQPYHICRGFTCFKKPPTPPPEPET
Sequence of Bifunctional protein GlmU (P9WMN3 whole entry): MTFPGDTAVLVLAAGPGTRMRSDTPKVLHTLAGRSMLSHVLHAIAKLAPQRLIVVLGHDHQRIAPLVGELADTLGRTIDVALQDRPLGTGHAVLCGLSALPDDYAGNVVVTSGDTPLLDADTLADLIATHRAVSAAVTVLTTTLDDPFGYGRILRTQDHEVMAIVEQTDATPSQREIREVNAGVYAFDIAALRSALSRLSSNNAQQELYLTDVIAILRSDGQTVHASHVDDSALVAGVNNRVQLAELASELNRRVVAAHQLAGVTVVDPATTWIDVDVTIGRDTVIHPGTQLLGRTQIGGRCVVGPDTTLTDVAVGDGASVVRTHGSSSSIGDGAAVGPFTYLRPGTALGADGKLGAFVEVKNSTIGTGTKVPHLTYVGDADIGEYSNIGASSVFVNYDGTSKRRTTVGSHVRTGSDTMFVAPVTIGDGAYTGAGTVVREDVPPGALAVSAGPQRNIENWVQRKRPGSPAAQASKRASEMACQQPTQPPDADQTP
Sequence of Delta-type opioid receptor (P41143 whole entry): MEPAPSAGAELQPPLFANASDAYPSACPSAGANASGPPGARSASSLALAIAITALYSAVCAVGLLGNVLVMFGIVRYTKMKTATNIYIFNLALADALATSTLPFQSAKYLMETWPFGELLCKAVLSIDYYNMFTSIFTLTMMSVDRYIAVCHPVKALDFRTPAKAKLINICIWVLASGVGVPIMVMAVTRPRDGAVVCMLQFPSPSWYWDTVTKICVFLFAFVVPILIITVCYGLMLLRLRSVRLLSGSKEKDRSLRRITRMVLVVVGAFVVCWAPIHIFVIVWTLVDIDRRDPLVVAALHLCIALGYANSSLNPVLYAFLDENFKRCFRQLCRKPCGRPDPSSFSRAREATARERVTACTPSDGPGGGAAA

O=c1c2cc(F)c(F)cc2nc(CN2CCNCC2)n1-c1ccccc1
IC50 [1]: 22.4 µM (active)

CCSc1nnc(-c2ccccc2)o1
IC90 [2]: 31 µM (active)
IC90 [3]: 31 µM (active)

C[C@H]1CN([C@@H](C)CO)C(=O)c2cccc(NC(=O)Nc3ccc(C(F)(F)F)cc3)c2O[C@@H]1CN(C)CC1CC1
AC50 [4]: 16 µM (active)

CN(C)C(=O)c1cccc(-c2cnc3c(NC=O)cc(-c4ccccc4N(C)C)cn23)c1
IC50 [5]: > 43.8 µM (inactive)

O=C(c1nnsc1[S+]([O-])c1ccc(Cl)cc1)N1CCOCC1 (centres undefined)
AC50 [6]: 13.4 µM (active)
AC50 [7]: 2.43 µM (active)
EC50 [8]: 2.13 µM (active)
IC50 (CHO): 2.21 µM (active)
IC50 [9]: 181 µM (active)
IC50 (Beta Lactamase): 30.8 µM (inactive)
AC50 [10]: 0.93 µM (active)
AC50 [11]: 27.3 µM (active)
EC50 [12]: 1.85 µM (active)
AC50 [13]: 7.35 µM (active)
AC50 [14]: 3.79 µM (active)
IC50 (Large T antigen): 31.6 µM (active)
EC50 [15]: 9.23 µM (active)

N#Cc1nc(-c2ccc(OCc3ccc(Cl)cc3)cc2)oc1NCCCn1ccnc1
IC50 [16]: 4.52 µM (active)

COC(=O)c1cc(Br)cnc1N1CCC(NC2CCCCC2)CC1
IC50 [17]: 19 µM (inactive)
IC50 (Mu-type opioid receptor): 1 µM (active)

COC(=O)c1ccc([C@@H]2c3[nH]c4ccccc4c3C[C@@H](C(=O)OC)N2C(=O)CCl)cc1
AC50 [18]: 0.0709 µM (active)
AC50 [19]: 0.374 µM (active)
AC50 [20]: 0.233 µM (active)
AC50 [21]: 0.0342 µM (active)
AC50 [22]: 0.0492 µM (active)
AC50 [23]: 0.105 µM (active)
AC50 [24]: 0.235 µM (active)

CC(C(=O)Nc1ccccn1)N(c1ccccc1Cl)S(C)(=O)=O (centres undefined)
EC50 [25]: 10 µM (inconclusive)
